# Measured values reported in PMC8752738, “A propolis-derived small molecule ameliorates metabolic syndrome in obese mice by targeting the CREB/CRTC2 transcriptional complex” (Nature Communications, 2022).
# “And” between values parts separate entries of the source, which are not always exact repeats. Equal values may be shown once.
# Assays:
# [1] = test system: CREB phosphorylation, CRTC2 dephosphorylation; experiment: Immunoblotting/immunostaining of P-CREB and CRTC2 in primary hepatocytes; type: cell-based, mouse; conditions: for Relative P-CREB/CREB density: Supp. Fig.10 c, individual replicates
# Procedure: Immunoblotting and immunoprecipitation assays were performed as previously described, with antibodies recognizing CREB, Ser133-P-CREB, AMPK, P-AMPK, AKT, P-AKT (Cell Signaling), PGC-1α (Merck), CRTC2 (Calbiochem), PCK1 (Santa Cruz), SREBP1 (Santa Cruz), SREBP2 (BD), HA (Convance), LXRα (Santa Cruz), FLAG (Sigma), GST (Covance), HIS (Abmart), GAPDH (AOGMA), α-TUBULIN (Abmart), β-ACTIN (Abmart), and other antibodies (Supplementary Table 3). For immunostaining assays, primary cultured hepatocytes seeded on coverslips were fixed with 4% paraformaldehyde for 20 min, permeabilized with 0.3% Triton X-100 in PBS, and then blocked by 5% normal goat serum and 0.3% Triton X-100 in PBS, followed by incubation with anti-CREB (1:1000), anti-P-CREB (1:1000), or anti-HA (1:3000) antibodies for 1 h at 4 °C. Slides were then washed, and after washing, slides were incubated with fluorochrome-conjugated secondary antibodies (Invitrogen). Slides were then washed and mounted with Vectashield mounting media containing 4, 6-diamidino-2-phenylindole (DAPI).
# [2] = biological target: T1, CRTC2 / SEC31A interaction (Mus musculus, UniProt Q3U182+Q3UPL0); experiment: Co-immunoprecipitation CRTC2 / SEC31A; type: biochemical; conditions: APC 10 μM in IP mixture
# T1 construct: expressed in transfected cells; host or cells: HEK293
# T1 sequence (Q3U182 whole entry): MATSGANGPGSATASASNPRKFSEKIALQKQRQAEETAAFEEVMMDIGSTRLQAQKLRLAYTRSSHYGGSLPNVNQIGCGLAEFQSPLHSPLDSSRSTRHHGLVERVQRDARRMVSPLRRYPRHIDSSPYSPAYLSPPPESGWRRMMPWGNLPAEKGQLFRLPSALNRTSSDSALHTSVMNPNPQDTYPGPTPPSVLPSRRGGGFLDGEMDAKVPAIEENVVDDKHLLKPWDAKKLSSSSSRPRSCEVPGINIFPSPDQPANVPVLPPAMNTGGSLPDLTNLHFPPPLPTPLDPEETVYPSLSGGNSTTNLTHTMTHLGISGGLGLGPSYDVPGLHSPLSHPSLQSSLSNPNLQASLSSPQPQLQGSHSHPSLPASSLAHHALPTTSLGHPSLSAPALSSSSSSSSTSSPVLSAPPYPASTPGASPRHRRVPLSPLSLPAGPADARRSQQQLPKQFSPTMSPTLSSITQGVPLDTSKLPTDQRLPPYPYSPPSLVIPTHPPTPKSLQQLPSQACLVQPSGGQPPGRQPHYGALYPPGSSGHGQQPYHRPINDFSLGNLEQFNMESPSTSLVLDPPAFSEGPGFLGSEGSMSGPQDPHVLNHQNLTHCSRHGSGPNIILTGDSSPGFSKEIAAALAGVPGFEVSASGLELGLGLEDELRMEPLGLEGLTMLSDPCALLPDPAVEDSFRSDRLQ
# T1 sequence (Q3UPL0 whole entry): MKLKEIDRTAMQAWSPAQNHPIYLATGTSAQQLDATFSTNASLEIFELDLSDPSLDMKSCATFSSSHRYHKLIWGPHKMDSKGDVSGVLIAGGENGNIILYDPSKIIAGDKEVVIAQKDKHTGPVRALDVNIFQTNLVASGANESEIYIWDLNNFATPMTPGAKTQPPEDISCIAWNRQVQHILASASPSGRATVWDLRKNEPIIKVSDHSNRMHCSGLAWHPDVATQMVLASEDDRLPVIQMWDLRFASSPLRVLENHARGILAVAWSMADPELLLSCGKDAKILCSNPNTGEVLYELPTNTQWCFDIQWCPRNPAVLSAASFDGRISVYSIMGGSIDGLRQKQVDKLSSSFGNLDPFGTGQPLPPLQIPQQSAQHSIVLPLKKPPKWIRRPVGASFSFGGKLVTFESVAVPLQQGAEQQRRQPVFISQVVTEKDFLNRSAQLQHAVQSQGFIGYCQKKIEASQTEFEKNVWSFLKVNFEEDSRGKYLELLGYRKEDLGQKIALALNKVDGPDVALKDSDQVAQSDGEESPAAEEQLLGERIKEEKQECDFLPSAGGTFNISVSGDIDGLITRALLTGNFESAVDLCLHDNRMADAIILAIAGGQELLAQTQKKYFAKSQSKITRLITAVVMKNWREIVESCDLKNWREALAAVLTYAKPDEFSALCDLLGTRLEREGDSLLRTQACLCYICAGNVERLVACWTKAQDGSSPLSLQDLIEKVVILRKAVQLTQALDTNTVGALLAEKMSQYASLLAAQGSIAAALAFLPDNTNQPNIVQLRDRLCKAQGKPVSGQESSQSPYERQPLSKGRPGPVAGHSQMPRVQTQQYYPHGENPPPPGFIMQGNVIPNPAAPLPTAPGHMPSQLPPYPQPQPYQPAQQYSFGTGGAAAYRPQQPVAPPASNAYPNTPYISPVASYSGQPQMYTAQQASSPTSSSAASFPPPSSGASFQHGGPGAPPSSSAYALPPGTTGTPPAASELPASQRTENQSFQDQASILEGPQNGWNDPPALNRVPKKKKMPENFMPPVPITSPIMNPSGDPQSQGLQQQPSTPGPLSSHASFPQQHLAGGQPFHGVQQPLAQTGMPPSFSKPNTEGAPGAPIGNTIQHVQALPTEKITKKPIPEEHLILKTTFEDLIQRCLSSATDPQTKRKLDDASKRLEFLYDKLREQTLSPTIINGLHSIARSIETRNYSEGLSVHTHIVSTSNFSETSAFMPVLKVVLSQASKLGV
# Procedure: 1 b) Immunoprecipitation of SEC31A from HEK293 cell lysates with overexpressed […] or
# 2 FLAG-Crtc2-WT. APC (10 μM) was added to the IP mixture overnight. One of two independent
# 3 experiments is shown here. […]
# 5 administered MET and APC as in (a). Data are represented as mean ± SEM (n=6 per group). *,
# 6 p < 0.05; **, p < 0.01; p values were determined by two-way ANOVA followed Bonferroni’s multiple
# 7 comparisons test. Source data for this figure are provided as a Source data file.
# [3] = Glucose, insulin, and pyruvate tolerance tests; type: in vivo, mouse; design: AUC of IGTT, Total Area / AUC analysis of ITT, Total Area / AUC of ITT, group mean / AUC of PTT, group mean / IGTT, Mean Diff. APC - VEH / IGTT, group mean (Mean 1, APC): unit not given beside the values; conditions: for blood glucose, PTT in DIO, group mean / blood glucose, IGTT, mean / ITT, group mean: N=7; for blood glucose: OGTT in db/db
# Procedure: After overnight fasting, mice were i.p. injected or treated orally with D-glucose (1–2 g/kg) for glucose-tolerance tests (IGTT or OGTT) or injecting with sodium pyruvate (1–2 g/kg) for pyruvate tolerance tests (PTT). Insulin-tolerance tests (ITT) were performed by i.p. injection of insulin (1 U/kg) 2-h after food removal. […]
# [4] = DIO and db/db mice, i.p. 20 mg/kg, 5 weeks
smiles,measurement,setting,value
"CC(C)=CCc1cc(C=CC(=O)O)cc(CC=C(C)C)c1O [APC, 3,5-diprenyl-4-hydroxycinnamic acid]",Relative P-CREB/CREB density,"[1]; CT (no glucagon), CTRL about 1.0",1.21 and 1.302 and 1.2292
same,Relative P-CREB/CREB density,"[1]; GLUC (glucagon), CTRL about 2.91",3.03 and 2.994 and 2.993
same,CREB phosphorylation induced by glucagon,[1]; primary hepatocytes,very little effect
same,CRTC2 dephosphorylation or nuclear translocation,"[1]; primary hepatocytes, APC 10 μM, glucagon",very little effect
same,protein interaction between CRTC2 and SEC31A,[2],no impact
same,capability for gluconeogenesis (PTT),[3]; [4],significantly inhibited
same,whole-body insulin sensitivity (GTT and ITT),[3]; [4],greatly enhanced
same,"blood glucose, PTT in DIO, group mean","[3]; DIO mice, 0 mins of PTT, mean of APC group",98.23 mg/dL
same,"blood glucose, PTT in DIO","[3]; DIO mice, 0 mins of PTT, single animals, n=7",79.2 mg/dL and 84.6 mg/dL and 104.4 mg/dL and 95.4 mg/dL and 124.2 mg/dL and 122.4 mg/dL and 77.4 mg/dL
same,"blood glucose, PTT in DIO, group mean","[3]; DIO mice, 15 mins of PTT, mean of APC group",148.9 mg/dL
same,"blood glucose, PTT in DIO","[3]; DIO mice, 15 mins of PTT, single animals, n=7",135 mg/dl and 153 mg/dl and 190.8 mg/dl and 156.6 mg/dl (2×) and 127.8 mg/dl and 122.4 mg/dl
same,"blood glucose, PTT in DIO, group mean","[3]; DIO mice, 30 mins of PTT, mean of APC group",191.6 mg/dL
same,"blood glucose, PTT in DIO","[3]; DIO mice, 30 mins of PTT, single animals, n=7",160.2 mg/dL and 192.6 mg/dL and 210.6 mg/dL and 185.4 mg/dL and 230.4 mg/dL and 187.2 mg/dL and 174.6 mg/dL
same,"blood glucose, PTT in DIO, group mean","[3]; DIO mice, 60 mins of PTT, mean of APC group",174.9 mg/dL
same,"blood glucose, PTT in DIO","[3]; DIO mice, 60 mins of PTT, single animals, n=7",129.6 mg/dL and 163.8 mg/dL and 210.6 mg/dL and 156.6 mg/dL and 248.4 mg/dL and 176.4 mg/dL and 138.6 mg/dL
same,"blood glucose, PTT in DIO, group mean","[3]; DIO mice, 120 mins of PTT, mean of APC group",133.2 mg/dL
same,"blood glucose, PTT in DIO","[3]; DIO mice, 120 mins of PTT, single animals, n=7",93.6 mg/dl and 126 mg/dl (2×) and 165.6 mg/dl and 178.2 mg/dl and 120.6 mg/dl and 122.4 mg/dl
same,"blood glucose, PTT in DIO, mean over all time points","[3]; DIO mice, Mean of APC, two-way RM ANOVA",149.3 mg/dL
same,"AUC of PTT, group mean","[3]; DIO mice, mean of APC group, n=7",631
same,Total Area of PTT (AUC analysis of PTT),"[3]; DIO mice, single animals, n=7",511.2 and 614.7 and 747 and 609.3 and 757.8 and 641.7 and 535.5
same,"blood glucose, IGTT, mean","[3]; Figure 8f, IGTT in DIO, 0 mins, group mean, VEH 112.9",93.09 mg/dL
same,"blood glucose, IGTT","[3]; Figure 8f, IGTT in DIO, 0 mins, individual mice",109.80 mg/dl (2×) and 84.60 mg/dl (2×) and 72.00 mg/dl and 97.20 mg/dl and 93.60 mg/dl
same,"blood glucose, IGTT, mean","[3]; Figure 8f, IGTT in DIO, 15 mins, group mean, VEH 362.1",364.4 mg/dL
same,"blood glucose, IGTT","[3]; Figure 8f, IGTT in DIO, 15 mins, individual mice",243.00 mg/dL and 401.40 mg/dL and 361.80 mg/dL and 469.80 mg/dL and 279.00 mg/dL and 376.20 mg/dL and 419.40 mg/dL
same,"blood glucose, IGTT, mean","[3]; Figure 8f, IGTT in DIO, 30 mins, group mean, VEH 448.5",358.7 mg/dL
same,"blood glucose, IGTT","[3]; Figure 8f, IGTT in DIO, 30 mins, individual mice",198.00 mg/dL and 376.20 mg/dL and 453.60 mg/dL and 383.40 mg/dL and 358.20 mg/dL and 468.00 mg/dL and 273.60 mg/dL
same,"blood glucose, IGTT, mean","[3]; Figure 8f, IGTT in DIO, 60 mins, group mean, VEH 351.8",257.9 mg/dL
same,"blood glucose, IGTT","[3]; Figure 8f, IGTT in DIO, 60 mins, individual mice",171.00 mg/dL and 248.40 mg/dL and 298.80 mg/dL and 241.20 mg/dL and 307.80 mg/dL and 372.60 mg/dL and 165.60 mg/dL
same,"blood glucose, IGTT, mean","[3]; Figure 8f, IGTT in DIO, 100 mins, group mean, VEH 222.7",157.1 mg/dL
same,"blood glucose, IGTT","[3]; Figure 8f, IGTT in DIO, 100 mins, individual mice",140.40 mg/dL and 131.40 mg/dL and 176.40 mg/dL and 138.60 mg/dL and 207.00 mg/dL and 190.80 mg/dL and 115.20 mg/dL
same,"AUC of IGTT, Total Area","[3]; Figure 8f, IGTT in DIO, individual mice",737.1 and 1134 and 1257 and 1200 and 1097 and 1359 and 958.5
same,"blood glucose, ITT","[3]; Figure 8g, ITT in DIO, 0 mins, individual mice",163.8 mg/dl (2×) and 151.2 mg/dl and 124.2 mg/dl and 156.6 mg/dl (2×) and 160.2 mg/dl
same,"blood glucose, ITT","[3]; Figure 8g, ITT in DIO, 15 mins, individual mice",91.8 mg/dL and 75.6 mg/dL and 79.2 mg/dL and 93.6 mg/dL and 97.2 mg/dL and 77.4 mg/dL and 108 mg/dL
same,"blood glucose, ITT","[3]; Figure 8g, ITT in DIO, 30 mins, individual mice",88.2 mg/dl (2×) and 73.8 mg/dl and 93.6 mg/dl and 82.8 mg/dl and 68.4 mg/dl and 86.4 mg/dl
same,"blood glucose, ITT","[3]; Figure 8g, ITT in DIO, 60 mins, individual mice",75.6 mg/dL and 88.2 mg/dL and 79.2 mg/dL and 93.6 mg/dL and 81 mg/dL and 61.2 mg/dL and 52.2 mg/dL
same,"blood glucose, ITT","[3]; Figure 8g, ITT in DIO, 100 mins, individual mice",86.4 mg/dl (2×) and 124.2 mg/dl and 75.6 mg/dl and 88.2 mg/dl (2×) and 50.4 mg/dl
same,"AUC analysis of ITT, Total Area","[3]; Figure 8g, ITT in DIO, individual mice",380.7 and 389.7 and 337.5 and 396.9 and 383.4 and 333 and 351.9
same,blood glucose,"[3]; Figure 9g, Time 0.0 mins, single animals",320.4 mg/dL and 340.2 mg/dL and 352.8 mg/dL and 234.0 mg/dL and 396.0 mg/dL
same,blood glucose,"[3]; Figure 9g, Time 30.0 mins, single animals",345.6 mg/dL and 576.0 mg/dL and 259.2 mg/dL and 268.2 mg/dL and 599.4 mg/dL
same,blood glucose,"[3]; Figure 9g, Time 60.0 mins, single animals",334.8 mg/dL and 468.0 mg/dL and 158.4 mg/dL and 194.4 mg/dL and 502.2 mg/dL
same,blood glucose,"[3]; Figure 9g, Time 90.0 mins, single animals",268.2 mg/dL and 486.0 mg/dL and 162.0 mg/dL and 203.4 mg/dL and 419.4 mg/dL
same,"AUC of OGTT, mean","[3]; Figure 9g, db/db, group mean, n 5",1059
same,AUC of OGTT,"[3]; Figure 9g, db/db, single animals",974.7 and 1457 and 675 and 681.3 and 1509
same,"OGTT in db/db, column mean of blood glucose","[3]; Figure 9g, mean over all time points and animals, N 20",344.4 mg/dL
same,"ITT, group mean","[3]; 0 min, mean of APC group",153.8
same,"ITT, group mean","[3]; 15 min, mean of APC group",88.97
same,"ITT, group mean","[3]; 30 min, mean of APC group",83.06
same,"ITT, group mean","[3]; 60 min, mean of APC group",75.86
same,"ITT, group mean","[3]; 100 min, mean of APC group",85.63
same,"AUC of IGTT in db/db, difference between means (APC - VEH) ± SEM",[3]; db/db mice,-383.6 ± 97.97
same,"IGTT, Mean Diff. APC - VEH","[3]; db/db mice, IGTT, 0 min",-33.3
same,"IGTT, group mean (Mean 1, APC)","[3]; db/db mice, IGTT, 0 min, n=8",142
same,"IGTT, Mean Diff. APC - VEH","[3]; db/db mice, IGTT, 15 min",-2.925
